PubChem BioAssay (NCI)
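Results reflect a 48-hour exposure of cells in 96-well plates to compound at five concentrations. At the GI50, growth is halved. TGI: total growth inhibition.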

Key:
Assay in all cases: NCI tumour cell line growth inhibition, 48 h
CCRF-CEM leukemia = test system: CCRF-CEM leukemia
EKVX NSCLC = test system: EKVX NSCLC
LOX IMVI melanoma = test system: LOX IMVI melanoma
MDA-MB-231 breast = test system: MDA-MB-231 breast
NCI/ADR-RES ovarian = test system: NCI/ADR-RES ovarian
SK-MEL-5 melanoma = test system: SK-MEL-5 melanoma
SK-OV-3 ovarian = test system: SK-OV-3 ovarian
T-47D breast = test system: T-47D breast
U251 CNS = test system: U251 CNS
UACC-62 melanoma = test system: UACC-62 melanoma

SMILES | GI50 (CCRF-CEM leukemia) [µM] | TGI (CCRF-CEM leukemia) [µM] | GI50 (EKVX NSCLC) [µM] | TGI (EKVX NSCLC) [µM] | GI50 (LOX IMVI melanoma) [µM] | TGI (LOX IMVI melanoma) [µM] | GI50 (MDA-MB-231 breast) [µM] | TGI (MDA-MB-231 breast) [µM] | GI50 (NCI/ADR-RES ovarian) [µM] | TGI (NCI/ADR-RES ovarian) [µM] | GI50 (SK-MEL-5 melanoma) [µM] | TGI (SK-MEL-5 melanoma) [µM] | GI50 (SK-OV-3 ovarian) [µM] | TGI (SK-OV-3 ovarian) [µM] | GI50 (T-47D breast) [µM] | TGI (T-47D breast) [µM] | GI50 (U251 CNS) [µM] | TGI (U251 CNS) [µM] | GI50 (UACC-62 melanoma) [µM] | TGI (UACC-62 melanoma) [µM]
COc1ccc2ncn(-c3cc(O[C@H](C)c4ccccc4C(F)(F)F)c(C(N)=O)s3)c2c1 | 0.0821 | 14.5 | 1.33 | 13.1 | 0.105 | 3.56 | 0.167 | 5.19 | 0.0586 | 0.185 | 0.169 | 3.55 | 0.1 | 5.56 | 2.86 | 7.2 | 0.166 | 6.24 | 0.142 | 4.58
Cc1cc2c(C(=O)NC[C@H](C)c3ccccc3)c(O)c(O)cc2c(O)c1-c1c(C)cc2c(C(=O)NC[C@H](C)c3ccccc3)c(O)c(O)cc2c1O | 0.122 | 11 | 0.411 | 8.1 | 0.539 | 4.89 | 0.677 | 6.53 | 0.252 | 4.3 | 0.447 | 1.47 | 0.431 | 2.8 | 0.284 | 1.34 | 0.074 | 1.67 | 0.146 | 0.486
COc1cc(/C=C2\CC3C4CC=C5C[C@@H](OC(C)=O)CC[C@]5(C)C4CC[C@]3(C)C2=O)ccc1OCCN1CCCCC1 (stereo partly specified) | 1.25 | 3.35 | 13.7 | 27.4 | 1.26 | 3.31 | 3.31 | 7.89 | 3.56 | 6.89 | 1.71 | 3.08 | 2.75 | 8.5 | 2.98 | 13.1 | 2.41 | 8.26 | 1.99 | 3.66
CCc1ccc(Oc2c(-c3ccc(OCc4ccc(Cl)cc4)cc3O)n[nH]c2C(F)(F)F)cc1 | 2.92 | 7.22 | 1.89 | 4.34 | 1.63 | 3.01 | 1.91 | 3.96 | 2.11 | 4.85 | 1.66 | 3.03 | 2.43 | 7.01 | 1.71 | 4.25 | 1.79 | 3.22 | 1.8 | 4.81
Fc1ccc(-c2c(-c3ccncc3)nc3n2CCS3)cc1 | > 25 | > 25 | > 25 | > 25 | > 25 | > 25 | > 25 | > 25 | > 25 | > 25 | > 25 | > 25 | > 25 | > 25 | > 25 | > 25 | > 25 | > 25 | > 25 | > 25
C/C=C(\C)c1cc(=O)c2c(C)cc3c(c2o1)C(=O)c1c(O)c(C2CC(C)(N(C)C)C(OC(C)=O)C(C)O2)cc(C2CC(N(C)C)C(O)C(C)O2)c1C3=O (stereo unspecified) |  | > 50 |  | 5.38 |  | 6.91 |  | 5.96 |  | 9.16 |  | 1.59 |  | > 50 |  | 38.2 |  | > 50 |  | 3.97
CC(C)C[C@H](NC(=O)CNC(=O)c1cc(Cl)ccc1Cl)B(O)O | 0.0203 | > 100 |  |  | 0.0224 | 0.0597 | 0.0302 | 0.14 | 0.183 | > 100 | < 0.0136 | 0.0305 | 0.0997 | 8.26 | < 0.0156 | 0.0602 | 0.0504 | 2.81 | < 0.0175 | 0.0457
COc1ccccc1Nc1cc(O)c2c(=O)cc(-c3ccccc3)oc2c1 | 3.57 | > 100 | 4.83 | 56 | 3.41 | > 100 | 3.96 | 18.4 | 1.99 | 18 | 3 | 9.58 | 3.57 | 17.9 | 4.36 | > 100 | 3.63 | > 100 | 2.39 | 12.8
CCc1nc(N)nc(N)c1-c1ccc(Cl)c([N+](=O)[O-])c1 |  | > 32.7 |  | > 100 |  | > 100 |  | > 100 |  | > 100 |  | 48.8 |  | > 100 |  | > 100 |  | > 100 |  | > 86.4
O=C(O)CSc1n[nH]c(=O)[nH]c1=O |  | > 100 |  | > 100 |  | > 100 |  | > 100 |  | > 100 |  | > 100 |  | > 100 |  | > 100 |  | > 100 |  | > 100
O=c1oc2ccc(I)cc2c(=O)n1-c1ccc(Br)cc1F | 1.93 | 10.4 | 1.34 | 7.11 | 0.626 | 5.86 | 0.457 | 3.79 | 0.798 | 6.09 | 0.317 | 1.04 | 0.614 | 2.97 | 0.856 | 6.7 | 0.75 | > 37.5 | 0.31 | 1.17
O=c1c2ccccc2sc2c(NCCCNCCO)nc3ccccc3c12 | 1.59 | 3.57 | 1.67 | 4.58 | 1.28 | 2.82 | 1.13 | 2.63 | 1.86 | 4.56 | 1.64 | 3.03 | 2.14 | 7.31 | 1.99 | 4.38 | 1.76 | 3.57 | 1.89 | 3.85
Cc1onc(-c2ccccc2)c1C(=O)N/N=C/c1cc(Cl)cc(Cl)c1O | 1.48 | 14.7 |  |  | 2.93 | 32.3 | 4.27 | 35.7 | 3.76 | 34.3 | 3.47 | 21.1 | 7.82 | 50.7 | 6.31 | 57.8 | 3.19 | 57.6 | 2.16 | 6.83
